Biological target: T1, human recombinant USP30 (Homo sapiens, UniProt Q70CQ3)
T1 construct: purchased Boston Biochem E-582
T1 sequence (Q70CQ3 1-517): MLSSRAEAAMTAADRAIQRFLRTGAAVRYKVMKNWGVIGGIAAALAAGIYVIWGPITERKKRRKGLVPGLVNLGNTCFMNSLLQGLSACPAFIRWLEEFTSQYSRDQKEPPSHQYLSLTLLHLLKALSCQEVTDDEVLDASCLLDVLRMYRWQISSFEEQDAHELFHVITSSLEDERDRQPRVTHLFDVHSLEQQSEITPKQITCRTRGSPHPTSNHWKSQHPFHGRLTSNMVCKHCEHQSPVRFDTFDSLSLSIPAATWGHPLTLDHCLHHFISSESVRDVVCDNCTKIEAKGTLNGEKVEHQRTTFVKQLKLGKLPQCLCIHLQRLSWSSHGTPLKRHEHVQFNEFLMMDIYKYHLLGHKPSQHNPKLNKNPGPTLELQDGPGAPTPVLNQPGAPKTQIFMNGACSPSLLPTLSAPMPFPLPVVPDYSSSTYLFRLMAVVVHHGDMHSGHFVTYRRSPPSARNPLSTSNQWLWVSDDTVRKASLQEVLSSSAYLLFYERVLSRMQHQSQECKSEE
Experiment: Ubiquitin-Rhodamine 110 Assay for USP30 Activity (USP30 Inhibitor Biochemical Assay)
Conditions: 0.2 nM USP30, 25 nM Ub-Rh110, 30 min preincubation, 30 min at room temperature; read-out: USP30 potency range (USP30 biochemical IC50 assay, IC50 ranges)
Procedure: Example A: Biochemical Assay: Ubiquitin-Rhodamine 110 Assay for USP30 Activity (USP30 Inhibitor Biochemical Assay)
The assay was performed in a final volume of 9 μL in assay buffer containing 20 mM Tris-HCl (pH 8.0, (1M Tris-HCl, pH 8.0 solution; Corning 46-031-CM)), 1 mM GSH (L-glutathione reduced, Sigma-Aldrich, G4251-100G), 0.03% BGG (0.22 μM filtered, Sigma, G7516-25G), and 0.01% Triton X-100 (Sigma, T9284-10L). Nanoliter quantities of 10-point, 3-fold serial dilution in DMSO were pre-dispensed into 1536 assay plates (Corning, #3724BC) for a final test concentration of 25 μM to 1.3 nM, top to lowest dose, respectively. Concentration and incubation times were optimized for the maximal signal-to-background while maintaining initial velocity conditions at a fixed substrate concentration. The final concentration of USP30 (human recombinant USP30, Boston Biochem, cat. # E-582) in the assay was 0.2 nM. […] 3 μL of 2×USP30 was added to assay plates (pre-stamped with compound), preincubated for 30 minutes and then treated with 3 μL of 2×Ub-Rh110. Plates were incubated for 30 minutes at room temperature before addition of 3 μL of stop solution (final concentration of 10 mM citric acid (Sigma, 251275-500G)). Fluorescence was read on the Envision (excitation at 485 nm and emission at 535 nm; Perkin Elmer) or on the PheraSTAR (excitation at 485 nm and emission at 535 nm; BMG Labtech).
For all assay formats data were reported as percent inhibition compared with control wells based on the following equation: % inh=1−((FLU−AveLow)/(AveHigh−AveLow)) where FLU=measured Fluorescence, AveLow=average Fluorescence of no enzyme control (n=16), and AveHigh=average Fluorescence of DMSO control (n=16). IC50 values were determined by curve fitting of the standard 4 parameter logistic fitting algorithm included in the Activity Base software package: IDBS XE Designer Model205. Data is fitted using the Levenburg Marquardt algorithm.

Row | SMILES | IC50
1 | C[C@@H]1CCCC[C@H]1c1cnc(NC(=O)[C@H]2C[C@H](NC#N)C2)s1 [Compound 1-24, (1r,3r)-3-(cyanoamino)-N-{5-[(1R,2R)-2-methylcyclohexyl]-1,3-thiazol-2-yl}cyclobutane-1-carboxamide] | < 0.1 µM
2 | N#CN[C@H]1C[C@H](C(=O)Nc2nc(C3CC3)c(C3CCCCC3)s2)C1 [Compound 1-25, (1r,3r)-3-(cyanoamino)-N-(5-cyclohexyl-4-cyclopropyl-1,3-thiazol-2-yl)cyclobutane-1-carboxamide] | < 0.1 µM
3 | N#CN[C@H]1C[C@H](C(=O)Nc2nc(-c3cnn(C4CC4)c3)c(C3CCCCC3)s2)C1 [Compound 1-26, (1r,3r)-3-(cyanoamino)-N-[5-cyclohexyl-4-(1-cyclopropyl-1H-pyrazol-4-yl)-1,3-thiazol-2-yl]cyclobutane-1-carboxamide] | < 0.1 µM
4 | N#CN[C@H]1C[C@H](C(=O)Nc2cc(C(F)(F)F)ccn2)C1 [Compound 1-27, (1r,3r)-3-(cyanoamino)-N-[4-(trifluoro-methyl)pyridin-2-yl]cyclobutane-1-carboxamide] | 0.1 to 1 µM
5 | N#CN[C@H]1C[C@H](C(=O)Nc2ncc([C@@H]3CCCCO3)s2)C1 [Compound 1-28, (1r,3r)-3-(cyanoamino)-N-{5-[(2S)-oxan-2-yl]-1,3-thiazol-2-yl}cyclobutane-1-carboxamide] | 1 to 10 µM
6 | Cc1nc(NC(=O)[C@H]2C[C@H](NC#N)C2)sc1C1CCCCC1 [Compound 1-29, (1r,3r)-3-(cyanoamino)-N-(5-cyclohexyl-4-methyl-1,3-thiazol-2-yl)cyclobutane-1-carboxamide] | < 0.1 µM
7 | Cn1nc(NC(=O)[C@H]2C[C@H](NC#N)C2)cc1C1CCCCC1 [Compound 1-30, (1r,3r)-3-(cyanoamino)-N-(5-cyclohexyl-1-methyl-1H-pyrazol-3-yl)cyclobutane-1-carboxamide] | 0.1 to 1 µM
8 | N#CN[C@H]1C[C@H](C(=O)Nc2nc(C(F)(F)F)c(C3CCCCC3)s2)C1 [Compound 1-31, (1r,3r)-3-(cyanoamino)-N-[5-cyclohexyl-4-(trifluoromethyl)-1,3-thiazol-2-yl]cyclobutane-1-carboxamide] | < 0.1 µM
9 | N#CN[C@H]1C[C@H](C(=O)Nc2ncc([C@H]3CCCC[C@H]3C(F)(F)F)s2)C1 [Compound 1-32, (1r,3r)-3-(cyanoamino)-N-{5-[(1S,2R)-2-(trifluoromethyl)cyclo-hexyl]-1,3-thiazol-2-yl}cyclobutane-1-carboxamide] | 0.1 to 1 µM
10 | N#CN[C@H]1C[C@H](C(=O)Nc2ncc([C@@H]3CCCC[C@@H]3C(F)(F)F)s2)C1 [Compound 1-33, (1r,3r)-3-(cyanoamino)-N-{5-[(1R,2S)-2-(trifluoromethyl)cyclo-hexyl]-1,3-thiazol-2-yl}cyclobutane-1-carboxamide] | 0.1 to 1 µM
11 | N#CN[C@H]1C[C@H](C(=O)Nc2ncc([C@H]3CCCC[C@@H]3C(F)(F)F)s2)C1 [Compound 1-34, (1r,3r)-3-(cyanoamino)-N-{5-[(1S,2S)-2-(trifluoromethyl)cyclo-hexyl]-1,3-thiazol-2-yl}cyclobutane-1-carboxamide] | 0.1 to 1 µM
12 | N#CN[C@H]1C[C@H](C(=O)Nc2nc(Cl)c(C3CC3)s2)C1 [Compound 1-36, (1r,3r)-N-(4-chloro-5-cyclopropyl-1,3-thiazol-2-yl)-3-(cyanoamino)cyclo-butane-1-carboxamide] | < 0.1 µM
13 | N#CN[C@H]1C[C@H](C(=O)Nc2ncc([C@@H]3CC4CCC3CC4)s2)C1 [Compound 1-37, (1r,3r)-N-{5-[(2R)-bicyclo[2.2.2]octan-2-yl]-1,3-thiazol-2-yl}-3-(cyanoamino)cyclo-butane-1-carboxamide] | < 0.1 µM
14 | N#CN[C@H]1C[C@H](C(=O)Nc2ncc([C@H]3CC4CCC3CC4)s2)C1 [Compound 1-38, (1r,3r)-N-{5-[(2S)-bicyclo[2.2.2]octan-2-yl]-1,3-thiazol-2-yl}-3-(cyanoamino)cyclo-butane-1-carboxamide] | 0.1 to 1 µM
15 | N#CN[C@H]1C[C@H](C(=O)Nc2cc(Cl)n(C3CCCCC3)n2)C1 [Compound 1-39, (1r,3r)-N-(5-chloro-1-cyclohexyl-1H-pyrazo1-3-yl)-3-(cyanoamino)cyclo-butane-1-carboxamide] | 0.1 to 1 µM
16 | N#CN[C@H]1C[C@H](C(=O)Nc2ncc(-c3cccc(C#N)c3)s2)C1 [Compound 1-40, (1r,3r)-3-(cyanoamino)-N-[5-(3-cyanophenyl)-1,3-thiazol-2-yl]cyclobutane-1-carboxamide] | 0.1 to 1 µM
17 | N#CN[C@H]1C[C@H](C(=O)Nc2cc(-c3cccc(Cl)c3)no2)C1 [Compound 1-41, (1r,3r)-N-[3-(3-chlorophenyl)-1,2-oxazol-5-yl]-3-(cyanoamino)cyclo-butane-1-carboxamide] | 0.1 to 1 µM
18 | N#CN[C@H]1C[C@H](C(=O)Nc2cc(-c3cccc(Cl)c3)on2)C1 [Compound 1-43, (1r,3r)-N-[5-(3-chlorophenyl)-1,2-oxazol-3-yl]-3-(cyanoamino)cyclo-butane-1-carboxamide] | 0.1 to 1 µM
19 | C[C@]1(C(=O)Nc2nc(Cl)c(C3CCCCC3)s2)C[C@H](NC#N)C1 [Compound 1-44, (1r,3s)-N-(4-chloro-5-cyclohexyl-1,3-thiazol-2-yl)-3-(cyanoamino)-1-methylcyclobutane-1-carboxamide] | < 0.1 µM
20 | CN(c1cc(-c2cccc(Cl)c2)no1)C(=O)[C@H]1C[C@H](NC#N)C1 [Compound 1-45, (1r,3r)-N-[3-(3-chlorophenyl)-1,2-oxazol-5-yl]-3-(cyanoamino)-N-methylcyclobutane-1-carboxamide] | 0.1 to 1 µM
21 | CCC1(C(=O)Nc2cnc(C3CCCCC3)s2)CC(NC#N)C1 (centres unmarked) [Compound 1-46, (1r,3s)-3-(cyanoamino)-N-(2-cyclohexyl-1,3-thiazol-5-yl)-1-ethylcyclobutane-1-carboxamide] | 0.1 to 1 µM
22 | N#CN[C@H]1C[C@](F)(C(=O)Nc2nc(Cl)c(C3CCCCC3)s2)C1 [Compound 1-47, (1s,3s)-N-(4-chloro-5-cyclohexyl-1,3-thiazol-2-yl)-3-(cyanoamino)-1-fluorocyclobutane-1-carboxamide] | 0.1 to 1 µM
23 | N#CN[C@H]1C[C@@](F)(C(=O)Nc2nc(Cl)c(C3CCCCC3)s2)C1 [Compound 1-48, (1r,3r)-N-(4-chloro-5-cyclohexyl-1,3-thiazol-2-yl)-3-(cyanoamino)-1-fluorocyclobutane-1-carboxamide] | < 0.1 µM
24 | CN(c1nc(Cl)c(C2CCCCC2)s1)C(=O)[C@H]1C[C@H](NC#N)C1 [Compound 1-49, (1r,3r)-N-(4-chloro-5-cyclohexyl-1,3-thiazol-2-yl)-3-(cyanoamino)-N-methylclycobutane-1-carboxamide] | < 0.1 µM
25 | CN(c1nc(Cl)c(C(C)(C)C)s1)C(=O)[C@H]1C[C@H](NC#N)C1 [Compound 1-50, (1r,3r)-N-(5-tert-butyl-4-chloro-1,3-thiazol-2-yl)-3-(cyanoamino)-N-methylcyclobutane-1-carboxamide] | < 0.1 µM
26 | N#CN[C@H]1C[C@H](C(=O)Nc2cc(-c3cccc(C#N)c3)no2)C1 [Compound 1-51, (1r,3r)-3-(cyanoamino)-N-[3-(3-cyanophenyl)-1,2-oxazol-5-yl]cyclobutane-1-carboxamide] | 0.1 to 1 µM
27 | CN(c1cc(-c2cccc(Cl)c2)on1)C(=O)[C@H]1C[C@H](NC#N)C1 [Compound 1-52, (1r,3r)-N-[5-(3-chlorophenyl)-1,2-oxazol-3-yl]-3-(cyanoamino)-N-methylcyclobutane-1-carboxamide] | 0.1 to 1 µM
28 | N#CN[C@H]1C[C@H](C(=O)Nc2ncc(C3CCCCC3)o2)C1 [Compound 1-53, (1r,3r)-3-(cyanoamino)-N-(5-cyclohexyl-1,3-oxazol-2-yl)cyclobutane-1-carboxamide] | 0.1 to 1 µM
29 | CN(c1nc(Cl)c(C(C)(C)C)s1)C(=O)[C@]1(F)C[C@H](NC#N)C1 [Compound 1-54, (1r,3r)-N-(5-tert-butyl-4-chloro-1,3-thiazol-2-yl)-3-(cyanoamino)-1-fluoro-N-methylcyclobutane-1-carboxamide] | < 0.1 µM

Reference: patent US11247987B2, “Inhibiting ubiquitin specific peptidase 30” (FORMA Therapeutics, Inc., priority 2017, dated 2022)
